How the values were obtained:
[1] = test system: mice bearing LNCaP tumor xenografts; assay: PET/CT imaging of 68Ga-labeled compounds; format: in vivo; conditions: for tumor uptake (qualitative comparison): compounds of FIG. 13
Protocol: 2.17 PET/CT Imaging and Biodistribution
(§1) Imaging and biodistribution experiments were performed using NODSCID 1L2RyKO male mice. Mice were anesthetized by inhalation with 2% isoflurane in oxygen, and implanted subcutaneously with 1×10^7 LNCaP cells behind left shoulder. Mice were imaged or used in biodistribution studies when the tumor grew up to reach 5-8 mm in diameter during 5-6 weeks.
PET imaging experiments were conducted using Siemens Inveon micro PET/CT scanner. Each tumor bearing mouse was injected 6-8 MBq of 68Ga-labeled tracer through the tail vein under anesthesia (2% isoflurane in oxygen). The mice were allowed to recover and roam freely in their cage. After 50 min, the mice were sedated again with 2% isoflurane in oxygen inhalation and positioned in the scanner. A 10-min CT scan was conducted first for localization and attenuation correction after segmentation for reconstructing the PET images. Then, a 10-min static PET imaging was performed to determined uptake in tumor and other organs. The mice were kept warm by a heating pad during acquisition. For imaging studies acquired at 3 h post-injection (p.i.), the mice were placed in the micro PET/CT scanner at 170 min p.i. Then, the CT acquisitions were conducted as described above, a 15-min static PET imaging was performed to determined uptake in tumor and other organs.

[2] = test system: mice bearing PSMA-expressing LNCAP cancer xenografts; assay: Biodistribution of 68Ga-labeled compounds; format: in vivo
Protocol: as §1
For biodistribution studies, the mice were injected with the radiotracer as described above. At predetermined time points (1 or 3 h), the mice was anesthetized with 2% isoflurane inhalation, and euthanized by CO2 inhalation. Blood was withdrawn immediately from the heart, and the organs/tissues of interest were collected. The collected organs/tissues were weighed and counted using an automatic gamma counter. The uptake in each organ/tissue was normalized to the injected dose using a standard curve, and expressed as the percentage of the injected dose per gram of tissue (% ID/g).

Compound: CCCCCCC(NC(=O)C1CCC(CNC(=O)CN2CCN(CC(=O)[O-])CCN(CC(=O)[O-])CCN(CC(=O)[O-])CC2)CC1)C(=O)NCCCCC(NC(=O)NC(CCC(=O)O)C(=O)O)C(=O)O.[68Ga+3] (centres unmarked) [^68Ga-HTK03026]
- excretion pathway ([1]; PET/CT images): excreted mainly via the renal pathway
- tumor uptake (qualitative comparison) ([1]; PET/CT images): comparable
- Adrenal glands uptake ([2]; 1 h post-injection): 1.84 ± 0.95 % ID/g
- Blood uptake ([2]; 1 h post-injection): 0.70 ± 0.19 % ID/g
- Bone uptake ([2]; 1 h post-injection): 0.54 ± 0.20 % ID/g
- Brain uptake ([2]; 1 h post-injection): 0.06 ± 0.02 % ID/g
- Fat uptake ([2]; 1 h post-injection): 0.45 ± 0.11 % ID/g
- Heart uptake ([2]; 1 h post-injection): 0.30 ± 0.06 % ID/g
- Intestine uptake ([2]; 1 h post-injection): 0.29 ± 0.06 % ID/g
- Kidneys uptake ([2]; 1 h post-injection): 68.5 ± 28.2 % ID/g
- Lacrimal uptake ([2]; 1 h post-injection): 1.33 ± 0.90 % ID/g
- Liver uptake ([2]; 1 h post-injection): 0.24 ± 0.06 % ID/g
- Lungs uptake ([2]; 1 h post-injection): 0.82 ± 0.26 % ID/g
- Muscle uptake ([2]; 1 h post-injection): 0.28 ± 0.13 % ID/g
- Pancreas uptake ([2]; 1 h post-injection): 0.71 ± 1.04 % ID/g
- Salivary uptake ([2]; 1 h post-injection): 0.83 ± 0.22 % ID/g
- Seminal uptake ([2]; 1 h post-injection): 0.43 ± 0.31 % ID/g
- Spleen uptake ([2]; 1 h post-injection): 1.34 ± 0.54 % ID/g
- Stomach uptake ([2]; 1 h post-injection): 0.10 ± 0.03 % ID/g
- Tail uptake ([2]; 1 h post-injection): 0.90 ± 0.56 % ID/g
- Testes uptake ([2]; 1 h post-injection): 0.35 ± 0.22 % ID/g
- Thyroid uptake ([2]; 1 h post-injection): 0.35 ± 0.08 % ID/g
- Tumor uptake ([2]; 1 h post-injection): 12.5 ± 2.90 % ID/g
- Tumor:Blood ratio ([2]; 1 h post-injection): 18.6 ± 5.54
- Tumor:Muscle ratio ([2]; 1 h post-injection): 52.8 ± 24.9
- Tumor:kidney ratio ([2]; 1 h post-injection): 0.22 ± 0.15
- Urine uptake ([2]; 1 h post-injection): 575 ± 245 % ID/g

Compound: O=C([O-])CN1CCN(CC(=O)[O-])CCN(CC(=O)NCC2CCC(C(=O)NC(Cc3ccc4cc5ccccc5cc4c3)C(=O)NCCCCC(NC(=O)NC(CCC(=O)O)C(=O)O)C(=O)O)CC2)CCN(CC(=O)[O-])CC1.[68Ga+3] (centres unmarked) [^68Ga-HTK03027]
- excretion pathway ([1]; PET/CT images): excreted mainly via the renal pathway
- tumor uptake (qualitative comparison) ([1]; PET/CT images): comparable
- Adrenal glands uptake ([2]; 1 h post-injection): 3.55 ± 2.33 % ID/g
- Blood uptake ([2]; 1 h post-injection): 1.56 ± 0.57 % ID/g
- Bone uptake ([2]; 1 h post-injection): 0.70 ± 0.33 % ID/g
- Brain uptake ([2]; 1 h post-injection): 0.06 ± 0.03 % ID/g
- Fat uptake ([2]; 1 h post-injection): 1.03 ± 0.67 % ID/g
- Heart uptake ([2]; 1 h post-injection): 0.56 ± 0.24 % ID/g
- Intestine uptake ([2]; 1 h post-injection): 0.44 ± 0.12 % ID/g
- Kidneys uptake ([2]; 1 h post-injection): 85.6 ± 73.5 % ID/g
- Lacrimal uptake ([2]; 1 h post-injection): 1.00 ± 0.56 % ID/g
- Liver uptake ([2]; 1 h post-injection): 0.46 ± 0.10 % ID/g
- Lungs uptake ([2]; 1 h post-injection): 1.66 ± 0.67 % ID/g
- Muscle uptake ([2]; 1 h post-injection): 0.48 ± 0.37 % ID/g
- Pancreas uptake ([2]; 1 h post-injection): 0.57 ± 0.20 % ID/g
- Salivary uptake ([2]; 1 h post-injection): 1.86 ± 0.91 % ID/g
- Seminal uptake ([2]; 1 h post-injection): 10.6 ± 10.9 % ID/g
- Spleen uptake ([2]; 1 h post-injection): 3.36 ± 2.54 % ID/g
- Stomach uptake ([2]; 1 h post-injection): 0.17 ± 0.10 % ID/g
- Tail uptake ([2]; 1 h post-injection): 0.98 ± 0.38 % ID/g
- Testes uptake ([2]; 1 h post-injection): 0.56 ± 0.18 % ID/g
- Thyroid uptake ([2]; 1 h post-injection): 0.76 ± 0.33 % ID/g
- Tumor uptake ([2]; 1 h post-injection): 13.3 ± 5.44 % ID/g
- Tumor:Blood ratio ([2]; 1 h post-injection): 8.57 ± 2.83
- Tumor:Muscle ratio ([2]; 1 h post-injection): 35.0 ± 18.7
- Tumor:kidney ratio ([2]; 1 h post-injection): 0.27 ± 0.20
- Urine uptake ([2]; 1 h post-injection): 844 ± 645 % ID/g

Compound: O=C([O-])CN1CCN(CC(=O)[O-])CCN(CC(=O)NCCCC[C@H](NC(=O)CNC(=O)CCCc2ccc(F)cc2)C(=O)NC[C@H]2CC[C@H](C(=O)N[C@@H](Cc3ccc4ccccc4c3)C(=O)NCCCC[C@H](NC(=O)N[C@@H](CCC(=O)O)C(=O)O)C(=O)O)CC2)CCN(CC(=O)[O-])CC1.[68Ga+3] [^68Ga-HTK03085]
- change of tumor uptake from 1 h to 3 h post-injection ([1]; PET/CT images): increases over time
- excretion pathway ([1]; PET/CT images): excreted mainly by the renal pathway
- blood retention (qualitative) ([1]; PET/CT images at 1 h and 3 h post-injection, comparison within the figure): significantly higher blood retention
- Adrenal glands uptake ([2]; 1 h post-injection): 3.57 ± 1.09 % ID/g
- Blood uptake ([2]; 1 h post-injection): 5.73 ± 0.93 % ID/g
- Bone uptake ([2]; 1 h post-injection): 0.34 ± 0.08 % ID/g
- Brain uptake ([2]; 1 h post-injection): 0.08 ± 0.01 % ID/g
- Fat uptake ([2]; 1 h post-injection): 1.36 ± 0.28 % ID/g
- Heart uptake ([2]; 1 h post-injection): 1.46 ± 0.27 % ID/g
- Intestine uptake ([2]; 1 h post-injection): 0.61 ± 0.10 % ID/g
- Kidneys uptake ([2]; 1 h post-injection): 85.8 ± 8.36 % ID/g
- Lacrimal uptake ([2]; 1 h post-injection): 0.11 ± 0.06 % ID/g
- Liver uptake ([2]; 1 h post-injection): 1.01 ± 0.29 % ID/g
- Lungs uptake ([2]; 1 h post-injection): 3.67 ± 0.72 % ID/g
- Muscle uptake ([2]; 1 h post-injection): 0.58 ± 0.08 % ID/g
- Pancreas uptake ([2]; 1 h post-injection): 0.86 ± 0.09 % ID/g
- Salivary uptake ([2]; 1 h post-injection): 2.61 ± 0.59 % ID/g
- Seminal uptake ([2]; 1 h post-injection): 1.42 ± 2.17 % ID/g
- Spleen uptake ([2]; 1 h post-injection): 3.90 ± 1.57 % ID/g
- Stomach uptake ([2]; 1 h post-injection): 0.24 ± 0.05 % ID/g
- Tail uptake ([2]; 1 h post-injection): 1.79 ± 0.36 % ID/g
- Testes uptake ([2]; 1 h post-injection): 1.03 ± 0.12 % ID/g
- Thyroid uptake ([2]; 1 h post-injection): 1.70 ± 0.25 % ID/g
- Tumor uptake ([2]; 1 h post-injection): 18.8 ± 3.35 % ID/g
- Tumor:Blood ratio ([2]; 1 h post-injection): 3.33 ± 0.75
- Tumor:Muscle ratio ([2]; 1 h post-injection): 33.2 ± 7.91
- Tumor:kidney ratio ([2]; 1 h post-injection): 0.22 ± 0.03
- Urine uptake ([2]; 1 h post-injection): 181 ± 97.2 % ID/g
- Adrenal glands uptake ([2]; 3 h post-injection): 1.37 ± 0.48 % ID/g
- Blood uptake ([2]; 3 h post-injection): 2.10 ± 0.48 % ID/g
- Bone uptake ([2]; 3 h post-injection): 0.13 ± 0.04 % ID/g
- Brain uptake ([2]; 3 h post-injection): 0.04 ± 0.01 % ID/g
- Fat uptake ([2]; 3 h post-injection): 0.70 ± 0.13 % ID/g
- Heart uptake ([2]; 3 h post-injection): 0.52 ± 0.09 % ID/g
- Intestine uptake ([2]; 3 h post-injection): 0.39 ± 0.08 % ID/g
- Kidneys uptake ([2]; 3 h post-injection): 63.4 ± 16.6 % ID/g
- Lacrimal uptake ([2]; 3 h post-injection): 0.04 ± 0.07 % ID/g
- Liver uptake ([2]; 3 h post-injection): 0.61 ± 0.08 % ID/g
- Lungs uptake ([2]; 3 h post-injection): 1.50 ± 0.26 % ID/g
- Muscle uptake ([2]; 3 h post-injection): 0.31 ± 0.08 % ID/g
- Pancreas uptake ([2]; 3 h post-injection): 0.35 ± 0.09 % ID/g
- Salivary uptake ([2]; 3 h post-injection): 1.03 ± 0.33 % ID/g
- Seminal uptake ([2]; 3 h post-injection): 0.21 ± 0.08 % ID/g
- Spleen uptake ([2]; 3 h post-injection): 1.05 ± 0.09 % ID/g
- Stomach uptake ([2]; 3 h post-injection): 0.16 ± 0.09 % ID/g
- Tail uptake ([2]; 3 h post-injection): 0.60 ± 0.15 % ID/g
- Testes uptake ([2]; 3 h post-injection): 0.60 ± 0.09 % ID/g
- Thyroid uptake ([2]; 3 h post-injection): 0.64 ± 0.10 % ID/g
- Tumor uptake ([2]; 3 h post-injection): 28.9 ± 4.27 % ID/g
- Tumor:Blood ratio ([2]; 3 h post-injection): 14.2 ± 2.77
- Tumor:Muscle ratio ([2]; 3 h post-injection): 95.8 ± 20.9
- Tumor:kidney ratio ([2]; 3 h post-injection): 0.48 ± 0.11
- Urine uptake ([2]; 3 h post-injection): 141 ± 54.3 % ID/g
